# Laboratory results as given in ChEMBL document CHEMBL1134375, “Synthesis of 2-amino-5-sulfanyl-1,3,4-thiadiazole derivatives and evaluation of their antidepressant and anxiolytic activity” (2001).
# Active and inactive are the calls of the source. The rule behind the calls is not given here.
# What was measured:
# Mus musculus [1] = species on record: Mus musculus; assay: Maximum percentage decrease in immobility time was determined by despair test in Male albino Swiss mice; NE=no effect; assay type: functional
# Rattus norvegicus [2] = assay: Percentage decrease in immobility time, after acute administration (intraperitoneally) in rat dosed at 20 mg/kg; assay type: functional; details: route intraperitoneal
# Rattus norvegicus [3] = assay: Percentage decrease in immobility time, after subchronic administration (intraperitoneally) in rat dosed at 20 mg/kg; assay type: functional; details: route intraperitoneal
# [4] = Maximum percentage decrease in immobility time was determined by despair test at a dose of 0.5 mg/kg in Male albino Swiss mice; assay type: functional, Mus musculus
# [5] = Maximum percentage decrease in immobility time was determined by despair test at a dose of 10 mg/kg in Male albino Swiss mice; assay type: functional, Mus musculus
# [6] = Maximum percentage decrease in immobility time was determined by despair test at a dose of 0.1 mg/kg in Male albino Swiss mice; assay type: functional, Mus musculus
# [7] = Maximum percentage decrease in immobility time was determined by despair test at a dose of 5 mg/kg in Male albino Swiss mice; assay type: functional, Mus musculus
# [8] = Maximum percentage decrease in immobility time was determined by despair test at a dose of 0.25 mg/kg in Male albino Swiss mice; assay type: functional, Mus musculus
# Rattus norvegicus [9] = assay: Maximum percentage decrease in immobility time was determined after subchronic administration of a dose of 2.5 mg/kg in rat; assay type: functional
# Rattus norvegicus [10] = assay: Maximum percentage decrease in immobility time was determined after acute intraperitoneal administration of a dose of 10 mg/kg in rat; assay type: functional
# Rattus norvegicus [11] = assay: Maximum percentage decrease in immobility time was determined after acute intraperitoneal administration of a dose of 20 mg/kg in rat; assay type: functional
# Rattus norvegicus [12] = assay: Maximum percentage decrease in immobility time was determined after subchronic administration of a dose of 1.25 mg/kg in rat; assay type: functional
# Rattus norvegicus [13] = assay: Maximum percentage decrease in immobility time was determined after acute intraperitoneal administration of a dose of 5 mg/kg in rat; assay type: functional
# Rattus norvegicus [14] = assay: Maximum percentage decrease in immobility time was determined after subchronic administration of a dose of 5 mg/kg in rat; assay type: functional
# Mus musculus [15] = species on record: Mus musculus; assay: Maximum percentage decrease in immobility time in mice, determined by despair test; NE=no effect; assay type: functional
# [16] = Percentage decrease in motor activity after intraperitoneal administration of a dose of 400 mg/kg in Male albino Swiss mice; assay type: functional, Mus musculus
# Rattus norvegicus [17] = assay: Amnesia inducing potential (S1 latency) was determined by passive avoidance test in rat at 2 mg/kg dose; assay type: functional
# [18] = Percentage decrease in motor activity after intraperitoneal administration of a dose of 300 mg/kg in Male albino Swiss mice; assay type: functional, Mus musculus
# Rattus norvegicus [19] = assay: Amnesia inducing potential (S2 latency) was determined by passive avoidance test in rat at 2 mg/kg dose; assay type: functional
# Rattus norvegicus [20] = assay: Amnesia inducing potential (S2 latency) was determined by passive avoidance test in rat at 0.5 mg/kg dose; assay type: functional
# Rattus norvegicus [21] = assay: Amnesia inducing potential (S1 latency) was determined by passive avoidance test in ratat 1 mg/kg dose; assay type: functional
# Rattus norvegicus [22] = assay: Amnesia inducing potential (S1 latency) was determined by passive avoidance test in rat 0.5 mg/kg dose; assay type: functional
# [23] = Percentage decrease in motor activity after intraperitoneal administration of a dose of 500 mg/kg in Male albino Swiss mice; assay type: functional, Mus musculus
# Rattus norvegicus [24] = assay: Amnesia inducing potential (S2 latency) was determined by passive avoidance test in rat at 1 mg/kg dose; assay type: functional
# Rattus norvegicus [25] = assay: Amnesia inducing potential (S2 latency) was determined by passive avoidance test in ratin rat at 0 mg/kg dose; assay type: functional
# Mus musculus [26] = assay: Ethanol potentiation in mice (intraperitoneal administration); details: ip
# [27] = Percentage decrease in motor activity after intraperitoneal administration of a dose of 600 mg/kg in Male albino Swiss mice; assay type: functional, Mus musculus
# Mus musculus [28] = assay: Effective dose determined by rotarod test in mice (intraperitoneal administration); details: ip
# Rattus norvegicus [29] = assay: Amnesia inducing potential (S1 latency) was determined by passive avoidance test in rat at 0 mg/kg dose; assay type: functional
# [30] = Maximum percentage decrease in immobility time was determined by despair test at a dose of 50 mg/kg in Male albino Swiss mice; assay type: functional, Mus musculus
# [31] = Maximum percentage decrease in immobility time was determined by despair test at a dose of 1 mg/kg in Male albino Swiss mice; assay type: functional, Mus musculus
# [32] = Maximum percentage decrease in immobility time was determined by despair test at a dose of 0.06 mg/kg in Male albino Swiss mice; assay type: functional, Mus musculus
# [33] = Maximum percentage decrease in immobility time was determined by despair test at a dose of 0.3 mg/kg in Male albino Swiss mice; assay type: functional, Mus musculus
structure (smiles),measurement,setting,value
CC(=O)Nc1nnc(SCc2cccc([N+](=O)[O-])c2)s1,Maximum percentage decrease in immobility time,Mus musculus [1],inactive
CN(C)CCCN1c2ccccc2CCc2ccccc21 [IMIPRAMINE],Decrease,Rattus norvegicus [2],<45%
same,Decrease,Rattus norvegicus [3],<56%
COc1ccc(CSc2nnc(NC(C)=O)s2)cc1,Decrease,[4],10%
CC(C)Sc1nnc(N)s1,Decrease,[5],17%
COc1cccc(CSc2nnc(NC(C)=O)s2)c1,Maximum percentage decrease in immobility time,Mus musculus [1],inactive
CCCCCCC(=O)Nc1nnc(SCc2ccccc2)s1,Maximum percentage decrease in immobility time,Mus musculus [1],inactive
CCC(=O)Nc1nnc(SCc2ccccc2)s1,Maximum percentage decrease in immobility time,Mus musculus [1],inactive
COc1cc(CSc2nnc(NC(C)=O)s2)cc(OC)c1OC,Decrease,[6],14%
CC(=O)Nc1nnc(SCc2ccc(Cl)cc2)s1,Maximum percentage decrease in immobility time,Mus musculus [1],inactive
Nc1nnc(SCc2cccc(Cl)c2)s1,Maximum percentage decrease in immobility time,Mus musculus [1],inactive
COc1cc(CSc2nnc(N)s2)cc(OC)c1OC,Maximum percentage decrease in immobility time,Mus musculus [1],inactive
Cc1cccc(CSc2nnc(N)s2)c1,Decrease,[7],17%
CC(=O)N(C)c1nnc(SC(C)C)s1,Decrease,[8],17%
Nc1nnc(SCc2ccccc2)s1,Decrease,Rattus norvegicus [9],<31%
same,Decrease,Rattus norvegicus [10],10%
same,Decrease,Rattus norvegicus [11],<24%
same,Decrease,Rattus norvegicus [12],<23%
same,Decrease,Rattus norvegicus [13],<33%
same,Decrease,Rattus norvegicus [14],<28%
same,Decrease,[5],35%
CC(=O)Nc1nnc(SCc2cccc(Cl)c2)s1,Maximum percentage decrease in immobility time,Mus musculus [1],inactive
CCCSc1nnc(N)s1,NE,Mus musculus [15],inactive
Nc1nnc(SCc2ccc(Cl)cc2)s1,Decrease,[6],15%
CC(=O)Nc1nnc(SCc2ccc([N+](=O)[O-])cc2)s1,Decrease,[8],16%
O=C(Nc1nnc(SCc2ccccc2)s1)c1ccccc1,Maximum percentage decrease in immobility time,Mus musculus [1],inactive
COc1cccc(CSc2nnc(N)s2)c1,Decrease,[16],<26%
same,Activity,Rattus norvegicus [17],7.2
same,Decrease,[18],19%
same,Activity,Rattus norvegicus [19],180
same,Activity,Rattus norvegicus [20],146
same,Activity,Rattus norvegicus [21],5.6
same,Activity,Rattus norvegicus [22],4.7
same,Decrease,[23],<46%
same,Activity,Rattus norvegicus [24],135
same,Activity,Rattus norvegicus [25],166
same,ED50,Mus musculus [26],162 mg/kg
same,Decrease,[27],<68%
same,ED50,Mus musculus [28],534 mg/kg
same,Activity,Rattus norvegicus [29],5.6
same,Decrease,[5],21%
CSc1nnc(N)s1,Decrease,[30],23%
CC(=O)Nc1nnc(SCc2ccc(C)cc2)s1,Maximum percentage decrease in immobility time,Mus musculus [1],inactive
Nc1nnc(SCc2ccc([N+](=O)[O-])cc2)s1,NE,Mus musculus [15],inactive
CSc1nnc(N(C)C(C)=O)s1,Maximum percentage decrease in immobility time,Mus musculus [1],inactive
CC(=O)Nc1nnc(SC(C)C)s1,Decrease,[31],19%
CC(=O)Nc1nnc(SCc2ccccc2)s1,Decrease,[32],22%
COc1ccc(CSc2nnc(N)s2)cc1,Decrease,[33],16%
Nc1nnc(SCc2cccc([N+](=O)[O-])c2)s1,Maximum percentage decrease in immobility time,Mus musculus [1],inactive
Cc1ccc(CSc2nnc(N)s2)cc1,Maximum percentage decrease in immobility time,Mus musculus [1],inactive
